# “Also recorded” adds a separate entry of the source.
# Legend:
# N. gonorrhoeae F62 ΔIgtD = test: Whole cell ELISA for Ab binding and complement component deposition; assay type: cell-based; settings: for complement deposition (C3, C4 and fB) and Ig binding: 3.3% and 10% NHS; for Neu5Ac-mediated decrease in IgG binding and complement deposition (C4, C3, factor Bb): analogue 20, 2 or 0.2 μg/ml 15 min after CMP-Neu5Ac 20 μg/ml, 10% and 3.3% NHS
# Method: FIG. 4. Complement C3 and C4 deposition on, and factor B binding to N. gonorrhoeae bearing nonulosonic acid analogues on LOS. N. gonorrhoeae F62 ΔIgtD was grown in media alone (open bars), or media supplemented with 20 μg/ml (˜30 μM) of each of the indicated CMP-nonulosonates. Bacteria were incubated with either 3.3% or 10% NHS at 37° C. for 10 min and IgG and IgM binding, and C3, C4 and factor B deposited on bacteria were measured by whole cell ELISA. Data with 3.3% and 10% NHS is shown by hatched and solid bars, respectively. Measurement of gonococcal H.8 lipoprotein antigen was performed to ensure similar bacterial capture to microtiter wells. The mean (SD) of triplicate observations is shown.
# FIG. 6. CMP-Neu5Ac9Az and CMP-Leg5Ac7Ac interfere with inhibition of the classical and alternative pathways of complement mediated by CMP-Neu5Ac. N. gonorrhoeae F62 ΔIgtD was incubated with 20 μg/ml (˜30 μM) CMP-Neu5Ac, followed in 15 min by the addition of CMP-Neu5Ac9Az or CMP-Leg5Ac7Ac (at concentrations of 20, 2 or 0.2 μg/ml final) and bacteria were incubated for 2 h as described in FIG. 5. Bacteria were incubated in 10% NHS and Ab binding and complement deposition studies were carried out by ELISA as described in FIG. 4. The mean (SD) of two independent experiments is shown.
# Binding of IgG and IgM to, and deposition of complement components C3, C4 and factor B on N. gonorrhoeae F62 ΔIgtD grown in the presence of the following CMP-nonulosonates was examined based on results of bactericidal assays and fH binding. […] N. gonorrhoeae F62 ΔIgtD with an unmodified (unsialylated) LNT LOS was used as the control serum sensitive strain. Experiments were carried out using serum concentrations of 10% and 3.3%, which represented the serum concentrations that produced discriminating phenotypes with Neu5Ac9Ac and Neu5Gc8Me.
# To define the mechanism whereby Neu5Ac9Az and Leg5Ac7Ac blocked complement resistance by Neu5Ac, we studied Ab binding to, and complement component deposition on N. gonorrhoeae F62 ΔIgtD that was incubated with CMP-Neu5Ac (20 μg/ml), followed 15 min later with either CMP-Neu5Ac9Az or CMP-Leg5Ac7Ac at concentrations of 20, 2 or 0.2 μg/ml. Controls included bacteria grown in the absence of any CMP-nonulosonate, or bacteria grown in CMP-Neu5Ac alone.
# C3 and C4 fragment deposition on, and factor B binding to bacteria were measured by whole cell ELISA as described previously (14, 15). Briefly, 2×10^8 organisms in HBSS^++ were incubated with NHS (at concentrations of 3.3% or 10%) in a reaction volume of 100 μl for 10 min at 37° C. This time point was chosen based on the kinetics of complement deposition on gonococci in previously published data (15). Reactions were stopped after 10 min by washing three times with ice-cold HBSS containing 5 mM phenylmethylsulfonyl fluoride at 4° C. Organisms were resuspended in 200 μl of the same buffer, and 50 μl of each sample applied per well of a 96-well U-bottomed polystyrene microtiter plate (Dynatech Laboratories, Inc., Chantilly, Va.) and incubated for 3 h at 37° C. Plates were washed with PBS containing 0.05% Tween 20. Primary antibodies (polyclonal goat anti-human C3, C4 and factor B) were diluted in PBS, and secondary antibodies diluted in PBS-0.05% Tween 20 prior to use. To ensure similar capture of bacteria incubated under different conditions, the amount of gonococcal H.8 antigen (16) expression using MAb 2-8C-4-1 (13), followed by anti-mouse IgG-alkaline phosphatase conjugate, was measured.
# [1] = system: Ng 398078 (expresses P^K-like structure on HepI); test: Complement resistance of Ng 398078 (serum bactericidal assay); assay type: cell-based, N. gonorrhoeae; settings: 10% normal human serum
# Method: CMP-Leg5Ac7Ac and CMP-Neu5Ac9Az also counteracted CMP-Neu5Ac-mediated serum resistance of a P^K LOS expressing isolate called 398078 (Table 4).
# Serum bactericidal assays were performed as described previously (11). Bacteria harvested from an overnight culture on chocolate agar plates were grown in liquid media containing the specified concentration of CMP-nonulosonate as specified for each experiment. Approximately 2000 CFU of F62 ΔIgtD were incubated with NHS (concentration specified for each experiment). The final reaction volumes were maintained at 150 μl. Aliquots of 25 μl of reaction mixtures were plated onto chocolate agar in duplicate at the beginning of the assay (t0) and again after incubation at 37° C. for 30 min (t30). Survival was calculated as the number of viable colonies at t30 relative to t0.
# [2] = CMP-NulO 20 μg/ml added to media 15 min after CMP-Neu5Ac 20 μg/ml
# [3] = 10% serum, compared with unsialylated F62 ΔIgtD
# [4] = CMP-nonulosonate 20 μg/ml, NHS 3.3% or 10%
Molecule,"complement deposition (C3, C4 and fB) and Ig binding (N. gonorrhoeae F62 ΔIgtD; CMP-nonulosonate 20 μg/ml)","Neu5Ac-mediated decrease in IgG binding and complement deposition (C4, C3, factor Bb) (N. gonorrhoeae F62 ΔIgtD)","% survival [mean (range)] [1, 2]",% survival [mean (range)] ([1]; CMP-NulO alone at 20 μg/ml),"C3, C4 and factor B deposition (N. gonorrhoeae F62 ΔIgtD; 3.3% serum)","C3, C4 and factor B deposition (N. gonorrhoeae F62 ΔIgtD; [3])",IgG binding (N. gonorrhoeae F62 ΔIgtD; [4]),IgM binding (N. gonorrhoeae F62 ΔIgtD; [4])
"5,7-diacetamido-3,5,7,9-tetradeoxy-D-glycero-D-galacto-nonulosonic acid [CMP-Leg5Ac7Ac]",highest levels of complement deposition and Ig binding,least amount of complement inhibition; also recorded: blocked this decrease,0 (0) %,0 (0) %,,,,
"COC(CO)C(O)C1OC(OP(=O)(O)OCC2OC(n3ccc(N)nc3=O)C(O)C2O)(C(=O)O)CC(O)C1NC(=O)CO [CMP-Neu5Gc8Me, CMP-5-hydroxyacetamido-8-O-methyl-3,5-dideoxy-D-glycero-D-galacto-nonulosonic acid]",,,,,low levels,only a modest decline,reduced IgG binding,
"CC(=O)N[C@H]1[C@H]([C@H](O)[C@H](O)CN=[N+]=[N-])OC(OP(=O)(O)OC[C@H]2O[C@@H](n3ccc(N)nc3=O)[C@H](O)[C@@H]2O)(C(=O)O)C[C@@H]1O (stereo partly drawn) [CMP-Neu5Ac9Az, CMP-5-acetamido-9-azido-3,5,9-trideoxy-D-glycero-D-galacto-nonulosonic acid]",highest levels of complement deposition and Ig binding,blocked this decrease,7.5 (5.2) %,7.1 (2.3) %,,,,
"CC(=O)NC1C(O)CC(OP(=O)(O)OCC2OC(n3ccc(N)nc3=O)C(O)C2O)(C(=O)O)OC1C(O)C(O)CO [CMP-Neu5Ac, CMP-5-acetamido-3,5-dideoxy-D-glycero-D-galacto-nonulosonic acid, reference compound]",maximal complement inhibition,,,57.5 (1.6) %,,,decreased IgG binding substantially,small but reproducible decrease
"CC(=O)N[C@H]1[C@H]([C@H](O)[C@H](O)COC(C)=O)OC(OP(=O)(O)OC[C@H]2O[C@@H](n3ccc(N)nc3=O)[C@H](O)[C@@H]2O)(C(=O)O)C[C@@H]1O (stereo partly drawn) [CMP-Neu5Ac9Ac, CMP-5-acetamido-9-O-acetyl-3,5-dideoxy-D-glycero-D-galacto-nonulosonic acid]",,,,,low levels,only a modest decline,reduced IgG binding,

# Source: patent publication US10865222B2, “Neisseria gonorrhoeae therapeutic based on CMP-nonulosonate sugars” (priority 2014, dated 2020)
